Laboratory results from ChEMBL document CHEMBL5034023, “Development of Multifunctional and Orally Active Cyclic Peptide Agonists of Opioid/Neuropeptide FF Receptors that Produce Potent, Long-Lasting, and Peripherally Restricted Antinociception with Diminished Side Effects” (J Med Chem, 2021).
Active and inactive are the calls of the source. Bridge positions count the residues as written; N and C are the ends. Square brackets hold non-standard residues; d marks the D form. Peptide text beside a SMILES is read from it. NMeF = CN[C@@H](Cc1ccccc1)C(=O)O

Legend:
Mus musculus [1] = assay: Antinociceptive activity against Kunming mouse model of thermal-induced nociception assessed as prolongation of tail-flick latency period at 0.87 nmol/kg, po in presence of RF9 at 5 mg/kg, ip measured up to 240 mins by tail-flick test; assay type: functional, organism-based; details: time min <=240
[2] = target: Kappa-type opioid receptor (Homo sapiens, UniProt P41145); assay type: functional, cell-based, HEK293-A
Mus musculus [3] = assay: Antinociceptive activity in Kunming mouse assessed as analgesic tolerance administered subcutaneously once daily for 8 days by tail flick test; assay type: functional, organism-based; details: time 8.0 day
[4] = Absolute oral bioavailability in Kunming mouse at 868.1 nmol/kg measured up to 120 mins by LC-MS/MS analysis; assay type: ADME, organism-based; details: in vivo
[5] = Tmax in Kunming mouse at 868.1 nmol/kg, po measured up to 120 mins by LC-MS/MS analysis; assay type: ADME, organism-based; details: in vivo
[6] = Apparent volume of distribution in Kunming mouse at 868.1 nmol/kg, iv measured up to 120 mins by LC-MS/MS analysis; assay type: ADME, organism-based; details: in vivo, read-out: Vd(app)
[7] = Clearance in Kunming mouse at 868.1 nmol/kg, po measured up to 120 mins by LC-MS/MS analysis; assay type: ADME, organism-based; details: in vivo
[8] = Toxicity in naloxone-induced withdrawal symptoms in Kunming mouse assessed as effect on jumping response at 17 to 870 nmol/kg, po for every 8 hrs followed by naloxone stimulation and measured for 3 days; assay type: organism-based; details: in vivo, 72 h, dose 17-870 nmol/kg, time 3 day
Mus musculus [9] = assay: Antinociception activity in po dosed Kunming mouse model of sciatic nerve CCI-induced neuropathic pain assessed as reduction in mechanical hypersensitivity by measuring reduction in paw withdrawl threshold measured up to 180 mins by Von Frey test; assay type: functional; details: 3 h, time min <=180
[10] = Half life in Kunming mouse at 868.1 nmol/kg, po measured up to 120 mins by LC-MS/MS analysis; assay type: ADME, organism-based; details: in vivo
Mus musculus [11] = assay: Antinociceptive activity against po dosed Kunming mouse model of thermal-induced nociception assessed as prolongation of tail-flick latency period measured up to 240 mins by tail-flick test; assay type: functional; details: 4 h, time min <=240
[12] = target: T1, Delta-type opioid receptor (Homo sapiens, UniProt P41143); assay: Agonist activity at DOR (unknown origin) expressed in HEK293-A cells assessed as inhibition of forskolin-induced cAMP accumulation preincubated for 30 mins in presence of 3-isobutyl-1-methylxanthine followed by forskolin and compound addition by competitive PKA binding assay relative to control; assay type: functional, cell-based; details: filed as agonist
Mus musculus [13] = assay: Antinociceptive activity in po dosed Kunming mouse assessed as analgesic tolerance by measuring increase in maximal possible effect administered for 8 consecutive days by tail flick test (Rvb= 1.16 nmol/kg); assay type: functional
Mus musculus [14] = assay: Antinociceptive activity against Kunming mouse model of thermal-induced nociception assessed as prolongation of tail-flick latency period at 8.68 nmol/kg, po in presence of NALM at 5 nmol, icv measured up to 240 mins by tail-flick test; assay type: functional, organism-based; details: time min <=240
Mus musculus [15] = assay: Antinociception activity in po dosed Kunming mouse model of sciatic nerve CCI-induced neuropathic pain assessed as reduction in thermal hypersensitivity by measuring reduction in paw withdrawl threshold measured up to 180 mins by Hargreaves test; assay type: functional; details: 3 h, time min <=180
Mus musculus [16] = assay: Antinociceptive activity against Kunming mouse model of thermal-induced nociception assessed as prolongation of tail-flick latency period at 8.68 nmol/kg, sc in presence of NALM at 1 mg/kg, sc measured up to 240 mins by tail-flick test; assay type: functional, organism-based; details: time min <=240
[17] = Toxicity in Kunming mouse assessed as effect on arterial pH at 868.1 nmol/kg, po measured up to 30 mins by blood gas analyzer; assay type: organism-based; details: in vivo, 0.5 h
[18] = Cmax in Kunming mouse at 868.1 nmol/kg, po measured up to 120 mins by LC-MS/MS analysis; assay type: ADME, organism-based; parameters: route oral, dose 868.1 nmol/kg, time <=120; details: in vivo
Mus musculus [19] = assay: Antinociceptive activity against Kunming mouse model of thermal-induced nociception assessed as prolongation of tail-flick latency period at 8.68 nmol/kg, po in presence of NALM at 1 mg/kg, ip measured up to 240 mins by tail-flick test; assay type: functional, organism-based; details: time min <=240
Mus musculus [20] = assay: Antinociceptive activity against Kunming mouse model of thermal-induced nociception assessed as prolongation of tail-flick latency period at 0.5 pmol, icv in presence of RF9 measured up to 240 mins by tail-flick test; assay type: functional, organism-based; details: time min <=240
[21] = Metabolic stability in mouse plasma assessed as degradation half life at 0.01 M measured up to 360 mins; assay type: ADME, cell-free
[22] = Toxicity in Kunming mouse assessed as effect on motor coordination at 86.8 to 868.1 nmol/kg, po measured after 10 to 40 mins by Rotarod test; assay type: organism-based; details: in vivo, dose lower 86.8 nmol/kg, time lower 10 min, dose upper 868.1 nmol/kg, time upper 40 min
[23] = Cmax in Kunming mouse at 868.1 nmol/kg, iv measured up to 120 mins by LC-MS/MS analysis; assay type: ADME, organism-based; parameters: route intravenous, dose 868.1 nmol/kg, time <=120; details: in vivo
[24] = Half life in Kunming mouse at 868.1 nmol/kg, iv measured up to 120 mins by LC-MS/MS analysis; assay type: ADME, organism-based; details: in vivo
Mus musculus [25] = assay: Antinociceptive activity against Kunming mouse model of thermal-induced nociception assessed as prolongation of tail-flick latency period at 8.68 nmol/kg, po in presence of nor-BNI at 1 mg/kg, ip measured up to 240 mins by tail-flick test; assay type: functional, organism-based; details: time min <=240
[26] = AUC (0 to infinity) in Kunming mouse at 868.1 nmol/kg, po measured up to 120 mins by LC-MS/MS analysis; assay type: ADME, organism-based; parameters: route oral, dose 868.1 nmol/kg, time <=120; details: in vivo, 2 h
[27] = Toxicity in Kunming mouse assessed as effect on arterial partial pressure of oxygen at 868.1 nmol/kg, po measured up to 30 mins by blood gas analyzer; assay type: organism-based; details: in vivo, 0.5 h
[28] = target: T1, Delta-type opioid receptor; assay: Agonist activity at DOR (unknown origin) expressed in HEK293-A cells assessed as inhibition of forskolin-induced cAMP accumulation preincubated for 30 mins in presence of 3-isobutyl-1-methylxanthine followed by forskolin and compound addition by competitive PKA binding assay; assay type: functional, cell-based
Mus musculus [29] = assay: Antinociceptive activity against Kunming mouse model of thermal-induced nociception assessed as prolongation of tail-flick latency period at 8.68 nmol/kg, sc in presence of beta-FNA at 1 mg/kg, sc measured up to 240 mins by tail-flick test; assay type: functional, organism-based; details: time min <=240
Mus musculus [30] = assay: Antinociceptive activity against Kunming mouse model of thermal-induced nociception assessed as prolongation of tail-flick latency period at 8.68 nmol/kg, sc in presence of RF9 at 5 mg/kg, sc measured up to 240 mins by tail-flick test; assay type: functional, organism-based; details: time min <=240
Mus musculus [31] = assay: Antinociceptive activity against Kunming mouse model of thermal-induced nociception assessed as prolongation of tail-flick latency period at 2 pmol, icv in presence of NTI measured up to 240 mins by tail-flick test; assay type: functional, organism-based; details: time min <=240
[32] = Toxicity in Kunming mouse assessed as inhibition of gastrointestinal transit at 868.1 nmol/kg, po in presence of RF9 at 10 mg/kg, ip measured after 30 mins by charcoal meal test; assay type: organism-based; details: in vivo, 0.5 h
Mus musculus [33] = assay: Antinociceptive activity against Kunming mouse model of thermal-induced nociception assessed as duration of analgesic effect administered subcutaneously by tail-flick test; assay type: functional

T1 sequence (P41143 whole entry): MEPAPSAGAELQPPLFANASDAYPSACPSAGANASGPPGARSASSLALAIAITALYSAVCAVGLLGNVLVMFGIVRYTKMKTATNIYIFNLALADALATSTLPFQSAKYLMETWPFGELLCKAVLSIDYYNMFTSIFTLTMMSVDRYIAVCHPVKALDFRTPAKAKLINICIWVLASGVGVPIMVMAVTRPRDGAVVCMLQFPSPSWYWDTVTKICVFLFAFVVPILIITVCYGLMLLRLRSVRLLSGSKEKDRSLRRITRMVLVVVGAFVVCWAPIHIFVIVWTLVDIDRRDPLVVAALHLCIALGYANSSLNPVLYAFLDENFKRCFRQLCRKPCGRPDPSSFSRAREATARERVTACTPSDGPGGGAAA
Kappa-type opioid receptor, sequence (P41145 whole entry): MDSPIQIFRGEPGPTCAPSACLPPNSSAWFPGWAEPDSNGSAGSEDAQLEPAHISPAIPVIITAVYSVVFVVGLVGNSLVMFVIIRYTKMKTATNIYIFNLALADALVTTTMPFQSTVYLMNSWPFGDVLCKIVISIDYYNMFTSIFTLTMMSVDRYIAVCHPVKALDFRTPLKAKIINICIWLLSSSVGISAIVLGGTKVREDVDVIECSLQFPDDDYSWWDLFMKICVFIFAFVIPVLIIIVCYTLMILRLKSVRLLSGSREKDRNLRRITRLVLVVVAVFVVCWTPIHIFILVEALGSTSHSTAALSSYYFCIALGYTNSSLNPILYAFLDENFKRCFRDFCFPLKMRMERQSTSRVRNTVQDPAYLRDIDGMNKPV

SMILES: CN1C(=O)CNC(=O)[C@H](NC(=O)[C@@H](N)Cc2ccc(O)cc2)CCCCNC(=O)C[C@@H](C(=O)N2CCC[C@H]2C(=O)N[C@@H](CCC(N)=O)C(=O)N[C@@H](CCCNC(=N)N)C(=O)N[C@@H](Cc2ccccc2)C(N)=O)NC(=O)[C@@H]1Cc1ccccc1 (H-Y[dK]G[NMeF]DPQRF-NH2; lactam 2-5)
- Activity (Mus musculus [1]): Active
- EC50 [2]: 39 nM
- Activity (Mus musculus [3]): inactive
- bioavailability [4]: 43.8%
- Tmax [5]: 1 min
- Vd [6]: 1.2 L/kg
- CL/F [7]: 130 mL/min/kg
- Activity [8]: Non-Toxic
- ED50 (Mus musculus [9]): 0.00334 µmol/kg
- half-life [10]: 188 min
- ED50 (Mus musculus [11]): 0.00119 µmol/kg
- Emax [12]: 56.1%
- ED50 (Mus musculus [13]): 0.00126 µmol/kg
- Activity (Mus musculus [14]): Active
- ED50 (Mus musculus [15]): 0.00322 µmol/kg
- Activity (Mus musculus [16]): inactive
- Activity [17]: Non-Toxic
- Cmax [18]: 215 ng/mL
- Activity (Mus musculus [19]): inactive
- Activity (Mus musculus [20]): Active
- half-life at 10000 µM [21]: 45.4 min
- Activity [22]: Non-Toxic
- Cmax [23]: 5070 ng/mL
- half-life [24]: 28.1 min
- Activity (Mus musculus [25]): inactive
- AUC [26]: 13800.8 µg·min/L
- Activity [27]: Non-Toxic
- EC50 [28]: 546 nM
- Activity (Mus musculus [29]): inactive
- Activity (Mus musculus [30]): Active
- Activity (Mus musculus [31]): Active
- Activity [32]: Non-Toxic
- Tlast (Mus musculus [33]): 240 min
